Legend:
[1] = Taurine chloroamine scavenger assay; conditions: 15 min at 37 °C, TMB readout
Procedure: Taurine chloramine was prepared by mixing hypochlorous acid (2.81 mM) with taurine (5 mM), cetyltrimethylammonium chloride (0.03%), NaCl (140 mM), and diethylenetriaminepentaacetic acid (100 μM) in phosphate buffer (20 mM, pH 7.4). The system was kept at 37 °C for 5 min for complete chloramine taurine formation. The compounds were added to this mixture and incubated for 15 min at 37 °C. Taurine chloramine was quantified by the oxidation of TMB (2 mM) catalyzed by iodide (100 μM).[33]

dHL-60 cells = assay: Cellular production of HOCl, PMA-activated dHL-60 cells; assay type: cell-based, human; conditions: 20 μM compound, 100 nM PMA, 1 h
Procedure: Human promyelocytic leukemic cells (HL-60) (BCRJ, RJ, Brazil) were cultivated in RPMI with fetal bovine serum (10%), penicillin (62 μg/mL), and streptomycin (100 μg/mL) at 37 °C in 5% CO2 atmosphere. HL-60 cells were differentiated to neutrophil-like (dHL-60) by DMSO (1.25%) during 4 days.[25]
(§1) Measurement of HOCl production by 1 × 10^6 dHL-60 or neutrophils was carried out in PBS (10 mM Na2HPO4, 2 mM KH2PO4, 0.5 mM MgCl2, 1 mM CaCl2, 140 mM NaCl, 5.5 mM dextrose, 100 μM diethylenetriaminepentaacetic acid, 5 mM taurine) in the presence of the compounds (20 μM in 0.3% DMSO) or 0.3% DMSO (control). Cells were activated with phorbol myristate acetate (100 nM) at 37 °C for 1 h. After incubation, cells were centrifuged at 1400 rpm for 10 min, and the supernatant was diluted threefold. Finally, 240 μL of this supernatant was added to 60 μL acetate buffer (400 mM, pH 5.4) containing NaI (100 μM) and TMB (2 mM in DMFO 10%). Taurine chloramine was quantified by TMB oxidation at 655 nm.[33] Inhibition of HOCl production was calculated as the percentage of the control (vehicle).

Human leukocyte MPO [2] = target: T1, Human leukocyte MPO (Homo sapiens, UniProt P05164); assay: MPO peroxidatic activity assay (AmplexRed oxidation); assay type: biochemical; set-up: Human leukocyte MPO (EC 1.7.1.11) was purchased from Planta Natural Products; purchased Planta Natural Products (Vienna, Austria); host or cells: human leukocytes
T1 sequence (P05164 279-745 limits assumed): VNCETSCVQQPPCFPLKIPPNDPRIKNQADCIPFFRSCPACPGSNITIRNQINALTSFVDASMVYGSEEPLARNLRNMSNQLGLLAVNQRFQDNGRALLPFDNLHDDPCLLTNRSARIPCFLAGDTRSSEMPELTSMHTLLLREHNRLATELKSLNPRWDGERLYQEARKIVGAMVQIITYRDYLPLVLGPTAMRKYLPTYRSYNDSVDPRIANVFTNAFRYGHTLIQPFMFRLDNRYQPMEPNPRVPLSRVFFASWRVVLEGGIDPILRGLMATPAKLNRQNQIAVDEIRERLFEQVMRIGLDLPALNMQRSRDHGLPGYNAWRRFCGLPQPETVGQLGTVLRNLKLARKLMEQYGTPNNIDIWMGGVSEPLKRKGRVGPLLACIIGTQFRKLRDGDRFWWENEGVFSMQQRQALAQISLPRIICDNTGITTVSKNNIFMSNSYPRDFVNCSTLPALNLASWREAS
T1 sequence (P05164 165-278 limits assumed): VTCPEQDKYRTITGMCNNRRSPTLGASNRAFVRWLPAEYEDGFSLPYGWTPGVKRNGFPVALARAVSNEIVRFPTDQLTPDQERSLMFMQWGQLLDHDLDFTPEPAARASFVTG
Procedure: MPO peroxidase activity was kinetically monitored using the artificial peroxidase substrate AmplexRed, which is oxidized to resorufin and can be detected by fluorescence.[34] Reactions were carried out in phosphate buffer (50 mM, pH 7.4), MPO (100 pM), cetyltrimethylammonium chloride (0.03%), diethylenetriaminepentaacetic acid (100 μM), AmplexRed (30 μM), and compounds (20 μM in 0.3% DMSO). The reaction was started by adding 2 μM hydrogen peroxide. The reaction product was assessed by fluorescence at λex = 530 and λem = 580 nm. The initial velocity was calculated by the slope of the linear regression in the first minutes of reaction. Inhibition is represented as a percentage of the control (vehicle).

[3] = system: human peripheral blood neutrophils; assay: Cellular production of HOCl, PMA-activated peripheral blood neutrophils; assay type: cell-based; conditions: 20 μM compound, 100 nM PMA, 1 h
Procedure: Human neutrophils were obtained from healthy individuals as previously described.[24] The experiments were approved by the local ethics committee (CEPSH-ICB 1435/18).
as §1

Human leukocyte MPO [4] = target: T1, Human leukocyte MPO; assay: MPO chlorinating activity assay (taurine chloramine/TMB); assay type: biochemical; set-up: Human leukocyte MPO (EC 1.7.1.11) was purchased from Planta Natural Products; purchased Planta Natural Products (Vienna, Austria); host or cells: human leukocytes; conditions: for IC50: pH 7.4; for chlorinating/peroxidatic activity inhibition ratio: ratio of % inhibition at 20 μM, ~1 indicates true enzyme inhibitor
Procedure: Chlorinating activity was carried out in phosphate buffer (20 mM, pH 7.4). Compounds (20 μM) were dissolved in 0.03% DMSO, MPO (10 nM), diethylenetriaminepentaacetic acid (100 μM), cetyltrimethylammonium chloride (0.03%), NaCl (140 mM), and taurine (5 mM).[31] This mixture was incubated at 37 °C for 15 min before adding 40 μM hydrogen peroxide. The reaction ran for 8 min and was then stopped by catalase (20 μg/mL). Oxidation of TMB (2 mM) (3,3,5,5-tetramethylbenzidine) by taurine chloroamine catalyzed by iodide (100 μM) was quantified at 650 nm.[33] Results were expressed as a percentage of the control (vehicle). IC50 was calculated by nonlinear regression using the Hill equation present in GraphPad Prism 5 software.

[5] = 20 μM compound, 100 pM MPO, 30 μM AmplexRed, 2 μM H2O2, pH 7.4
[6] = supplementary csv copy of Table 1
[7] = 20 μM compound, 10 nM MPO, 140 mM NaCl, 5 mM taurine, 40 μM H2O2, pH 7.4
[8] = 20 μM compound, 10 nM MPO, 140 mM NaCl, 5 mM taurine, 40 μM H2O2, pH 7.4, read-out: % Inhibition (at 20 μM) Chlorinating
[9] = supplementary csv copy of Table 1, read-out: % Inhibition (Chlorinating)
[10] = 20 μM compound, 100 pM MPO, 30 μM AmplexRed, 2 μM H2O2, pH 7.4, read-out: % Inhibition (at 20 μM) Peroxidatic
[11] = supplementary csv copy of Table 1, read-out: % Inhibition (Peroxidatic)

Row | SMILES | scavenger activity toward taurine chloramine [1] | inhibition of HOCl production in dHL-60 cells (dHL-60 cells) | % Inhibition (at 20 μM) Peroxidatic (Human leukocyte MPO [2]; [5]) | % Inhibition (Peroxidatic) (Human leukocyte MPO [2]; [6]) | inhibition of HOCl production in peripheral blood neutrophils [3] | IC50 (Human leukocyte MPO [4]; 10 nM MPO, 140 mM NaCl) [µM] | % Inhibition (at 20 μM) Chlorinating (Human leukocyte MPO [4]; [7]) | inhibition at 20 µM (Human leukocyte MPO [4]; [8]) [%] | chlorinating/peroxidatic activity inhibition ratio (Human leukocyte MPO [4]) | inhibition at 20 µM (Human leukocyte MPO [4]; [9]) [%] | inhibition at 20 µM (Human leukocyte MPO [2]; [10]) [%] | inhibition at 20 µM (Human leukocyte MPO [2]; [11]) [%] | % Inhibition (Chlorinating) (Human leukocyte MPO [4]; [6])
1 | COc1ccc(C(=O)Nc2ccc(-c3nnc(S)o3)cc2)cc1 [RL18] | scavenger capacity | no effect | INACTIVE | INACTIVE | no effect | 12 | active against chlorinating activity only | 73 ± 19.7 | high | 73 ± 19.7 | – | – | –
2 | CCc1n[nH]c2c1C(c1ccc(O)c(OC)c1)C(C#N)=C(N)O2 (centres unmarked) [RL23] | – | – | – | – | – | – | – | 57.8 ± 13.9 | – | 57.8 ± 13.9 | 25.1 ± 3.2 | 25.1 ± 3.2 | –
3 | O=c1c2cnc3cc(C(F)(F)F)ccc3c2sc2nncn12 [RL25] | – | – | INACTIVE | INACTIVE | – | – | INACTIVE | – | – | – | – | – | INACTIVE
4 | CCOC(=O)C1=C(N)Oc2cc(O)ccc2C1c1ccc(F)cc1F (centres unmarked) [RL24] | – | – | – | – | – | – | – | 40.1 ± 5.5 | – | 40.1 ± 5.5 | 59.1 ± 2.9 | 59.1 ± 2.9 | –
5 | CCOC(=O)C(Cc1ccc(O)cc1)NC1=CC(=O)C(=O)c2ccccc21 (centres unmarked) [RL16] | – | – | inhibited exclusively the peroxidatic assay | – | – | – | INACTIVE | – | – | – | 67.1 ± 8.1 | 67.1 ± 8.1 | INACTIVE
6 | CC1=Nc2ccc(Cl)cc2-c2[nH]c3ccccc3c2N1 [RL1] | – | – | – | – | – | – | – | 50.2 ± 4 | – | 50.2 ± 4 | 81 ± 15.1 | 81 ± 15.1 | –
7 | N#CC1=C(N)Oc2c(c(=O)sc3ccccc23)C1c1ccc(F)cc1 (centres unmarked) [RL20] | – | – | inhibited exclusively the peroxidatic assay | – | – | – | INACTIVE | – | – | – | 34 ± 4.3 | 34 ± 4.3 | INACTIVE
8 | O=C1ON=C(c2ccccc2)/C1=C\c1cccc(O)c1 [RL17] | – | – | – | – | – | – | – | 63 ± 6.2 | high | 63 ± 6.2 | 24 ± 4.1 | 24 ± 4.1 | –
9 | CCCOc1ccc(C2C(C#N)=C(N)SC(N)=C2C#N)cc1OC [RL26] | decreased both taurine chloroamine | – | – | – | – | 12.6 | – | 81 ± 5.8 | – | 81 ± 5.8 | 78.7 ± 4.2 | 78.7 ± 4.2 | –
10 | CC1CCc2sc3c(c2C1)c1ncnn1c1nnc(S)n31 (centres unmarked) [RL9] | – | – | – | – | – | – | – | 92 ± 3.2 | high | 92 ± 3.2 | 42.1 ± 7.9 | 42.1 ± 7.9 | –
11 | CC1CCCc2sc3nc(S)n(N)c(=O)c3c21 (centres unmarked) [RL27] | – | – | – | – | – | – | – | 18.6 ± 1.6 | – | 18.6 ± 1.6 | 29.5 ± 2.9 | 29.5 ± 2.9 | –
12 | COc1cc(/C=N/NC(=O)c2ccoc2C)ccc1OCCN1CCCCC1 [RL15] | – | – | – | – | – | – | INACTIVE | – | – | – | – | – | INACTIVE
13 | CCCNc1ncnc2cc(-c3ccc(OC)cc3)sc12 [RL28] | – | – | INACTIVE | INACTIVE | – | – | INACTIVE | – | – | – | – | – | INACTIVE

From paper PMC11284790, “Targeting Myeloperoxidase Ameliorates Gouty Arthritis: A Virtual Screening Success Story” (Journal of Medicinal Chemistry, 2024)
